One data set concerns CCRF-CEM T-ALL cells. As to the kind of experiment: EdU pulse assay of cell cycle progression after release from G1 arrest. It counts as cell-based. Conditions: 12 h after release from G1. Here is the method:
Following release from G1, cells progress to early, mid and late S phase (defined as S1, S2 and S3, respectively) and G2/M. By 18 h following release in drug-free media, 42.5% of cells progressed to S3. […] Thus, dCK represents a resistance mechanism to ATR inhibition.
Cells were treated with a CDK4/6 inhibitor, PD-0332991 (Selleckchem) for 18 h to arrest in G1 phase. Subsequently, cells were washed and released into fresh media containing 10% FBS to monitor the progression of synchronized cells throughout the cell cycle by flow cytometry analysis.
For measuring cell cycle progression of synchronous population of cells, cells were first arrested in G1 phase, then washed and released in treated media. Before collecting and fixing cells at various time points, cells were pulse-labeled with 10 μM EdU for 1 h, and then click-labeled with azide-Alexa Fluor 647 (Invitrogen; Click-iT EdU Flow cytometry kit) according to manufacturer's protocol. Total DNA content was assessed by staining with FxCycle-Violet (Invitrogen) at 1 μg/mL final concentration in PBS containing 2% FBS.

Data set [1] concerns CEM cells. Kind of data set: Mass spectrometric assay of de novo (RNR) and salvage (dCK) contribution to dCTP and DNA-C. It counts as cell-based.
Protocol: To analyze the differential utilization of de novo and nucleotide biosynthetic salvage pathways, cultured cells were incubated with stable isotope labeled DNA precursors. […] Extracted dNTP and DNA were analyzed in a triple quadrupole mass spectrometer (QQQ) using multiple reaction monitoring (MRM). The first (Q1) and third (Q3) quadrupoles function as mass filters while the second (Q2) quadrupole serves as a collision chamber. […] In Q2, the glycosidic bond of the selected dC is cleaved, releasing a protonated nucleobase (NB) fragment and a neutral deoxyribose (dR) molecule. The m/z specific NB fragments from dC is separated in Q3 and detected to generate ion chromatograms. […] Each identifier corresponded to a specific biosynthetic pathway and is defined as [x;y], where “x” is the number of heavy isotope-labeled atoms in NB and “y” is the number of heavy isotope atoms in dR. […] According to current biochemical maps of nucleotide metabolism, the [7;5] identifier can only arise from salvaging [U-^13C9,^15N3]dC into newly synthesized DNA. In contrast, a dC with a [0,5] identifier is a product of the de novo pathway. The ratio of the peak areas in the ion chromatograms of salvage [7;5] and de novo [0;5] identifiers describes the relative contributions of the two biosynthetic routes to the dCTP pool used for DNA replication.
(§4) The cells were incubated for 18 h or as indicated in the text before samples collection and processing.
Genomic DNA was extracted using the Quick-gDNA MiniPrep kit (Zymo Research, D3021) and hydrolyzed to nucleosides using the DNA Degradase Plus kit (Zymo Research, E2021) following manufacturer-supplied instructions. In the final step of DNA extraction, 50 μL of water was used to elute the DNA. A nuclease premix solution was prepared by mixing 10× buffer, DNA degradase Plus™ and water in the ratio of 2.5/1/1.5 (v/v/v). DNA hydrolysis reaction was prepared in mass spec vials by mixing 5 μL of the nuclease premix solution (5 U of enzyme) and 20 μL of eluted genomic DNA, the total volume becomes 25 μL. The samples were tapped and flicked downward prior to overnight before incubation at 37° C.
Cells were collected into microcentrifuge tube and centrifuged (450×g, 4 min, 4° C.). The supernatant was carefully aspirated. The cells were washed twice by the addition of 1 mL of cold PBS and centrifugation (450×g, 4 min 4° C.). PBS washes were aspirated. Thereafter, cells were lysed in 40 μL of 70% methanol/water (v/v), vortexed (30 s) and incubated on ice for 10 min. Then 40 μL of chloroform (Fisher) was added, vortexed (30 s) and incubated on ice for another 10 min. The samples were then centrifuged at max speed for 10 min at 4° C. Finally, the supernatant was transferred (≈25 μL) into a mass spec vial.
For genomic DNA and media analysis, an aliquot of DNA hydrolysis or media samples (20 μL) was injected directly onto a porous graphitic carbon column (Thermo Fisher Scientific Hypercarb, 100×2.1 mm, 5 μm particle size) equilibrated in solvent A (water/acetonitrile/formic acid, 95/5/0.2, v/v/v) and eluted (200 μL/min) with an increasing concentration of solvent B (acetonitrile/water/formic acid, 90/10/0.2, v/v/v): min/% B/flow rate (μL/min); 0/0/200, 5/0/200, 10/15/200, 20/15/200, 21/40/200, 25/50/200, 26/100/700, 30/100/700, 3I/O/700, 34/0/700, 35/0/200).
Another data set deals with CEM T-ALL. Kind of data set: Cell-Titer-Glo viability assay, 72 h. Conditions: read-out: IC50 of VE-822. Format: cell-based. As for the experimental part: (§1) Cells were plated in a 384-well plate (1,000 cells/well for suspension cell lines and 500 cells/well for adherent cell lines in 30 μL). For suspension cell lines, the plate was incubated in 37° C. for 1 h to let the cells settle. For adherent cell lines, the plate was incubated overnight to allow the cells to seed. During incubation, drugs were diluted to desired concentration by serial dilution, vehicle condition was created by adding equivalent amount of DMSO. After incubation, 10 μL of diluted drugs were added to each well, and incubated for 72 h. After incubation, Cell TiterGlo reagent was added to each well according to manufacturer's instructions (Promega, CellTiter-Glo® Luminescent Cell Viability Assay). The plates were shaken for 2 min and incubated in dark for 8 min. Luminescence readings were obtained with luminometer (Molecular devices, SpectraMax).

A further data set concerns PANC-1 PDAC cells. As to the kind of experiment: Cell-Titer-Glo viability assay, 72 h. Format: cell-based. The note with it: Homo sapiens, PANC-1, read-out: IC50 of VE-822. Here is the method: as §1
For data set [2], the system named is BCR-ABL p185^+/Arf^−/− pre B-ALL cells. As to the kind of experiment: Systemic pre B-ALL model in C57BL/6 mice, bioluminescence imaging, survival, body weight. The note with it: VE-822 40 mg/kg orally once daily. Format: in vivo. Here is the method:
All drugs for oral administration were solubilized in Prototype 9′ (PEG-200:Transcutol:Labrasol:Tween-80 mixed in 5:3:1:1 ratio) as single agents or in combination. For i.p. administration, drugs were solubilized in PEG-400 and 1 mM Tris-HCl at a 1:1 (v:v) ratio. Dasatinib (LC Laboratories) was solubilized in 80 mM citric acid (pH 3.1, Boulos et al.) and was administered at a dose of 10 mg/kg by oral gavage. 2×10^5 luciferase expressing p185 cells were injected intravenously into C57BL/6 female mice for leukemia induction. All drugs were administered starting 6 or, 7 days after intravenous cell inoculation, when animals had developed a significant leukemic burden as monitored by bioluminescence imaging (IVIS Bioluminescence Imaging scanner). Dosing schedules are indicated in the text and figure legends. Mice were observed daily; those that became moribund during the trials (paralysis of hind limbs, significant body weight loss) were sacrificed immediately. Kaplan-Meier curves and Bioluminescence quantifications were generated using GraphPad Prism (v6.0f for Mac).
Mice were anesthetized with 2% isoflurane followed by an intraperitoneal injection of 50 μL (50 mg/ml) substrate luciferin. Mice were imaged with IVIS Bioluminescence Imaging scanner after 10 minutes after luciferin administration. […]

In data set [3] the test system is Chk1 and Claspin phosphorylation in CEM T-ALL cells. As to the kind of experiment: Phosphoproteomics after G1 release. The note with it: with and without DI-82; 6 and 12 h after G1 release. It counts as cell-based, human. Here is the method: Cells were treated with a CDK4/6 inhibitor, PD-0332991 (Selleckchem) for 18 h to arrest in G1 phase. Cells were then washed twice with PBS and released in fresh media with treatment at a density of 0.5×10^6 cells/ml. Cells were collected at time point 6 and 12 h and solubilized using 0.5% sodium deoxycholate, 12 mM sodium lauryl sarcosine, and 50 mM triethylammonium bicarbonate pH 8.0 with 1 mL per 5×10^7 cells with trituration and vortexing. Cell lysates were heated at 95° C. for 5 min and water bath sonicated at RT for 5 min. Bicinchoninic acid protein assay (Pierce) was performed to determine protein concentration. […] Light, medium, and heavylabeled peptides were mixed 1:1:1, diluted with 0.1% formic acid to a final concentration of 3% acetonitrile and analyzed using 180 min data-dependent nLC-MS/MS on Thermo Orbitrap XL as later discussed. […] 5 uL of each SCX fraction was analyzed using 180 min data-dependent reverse-phase nLC-MS/MS on Thermo Orbitrap XL equipped with Eksigent Spark autosampler, Eksigent 2D nanoLC, and Phoenix ST Nimbus dual column source. […] Peptides were analyzed over 180 min linear gradient of 0-40% mobile phase B (97% acetonitrile, 3% dimethylsulfoxide, and 0.1% formic acid) at 300 nL/min. […]

The target in another data set is ATM (Homo sapiens, UniProt Q13315). The note with it: cited from earlier work.
ATM, sequence (Q13315 whole entry, species assumed): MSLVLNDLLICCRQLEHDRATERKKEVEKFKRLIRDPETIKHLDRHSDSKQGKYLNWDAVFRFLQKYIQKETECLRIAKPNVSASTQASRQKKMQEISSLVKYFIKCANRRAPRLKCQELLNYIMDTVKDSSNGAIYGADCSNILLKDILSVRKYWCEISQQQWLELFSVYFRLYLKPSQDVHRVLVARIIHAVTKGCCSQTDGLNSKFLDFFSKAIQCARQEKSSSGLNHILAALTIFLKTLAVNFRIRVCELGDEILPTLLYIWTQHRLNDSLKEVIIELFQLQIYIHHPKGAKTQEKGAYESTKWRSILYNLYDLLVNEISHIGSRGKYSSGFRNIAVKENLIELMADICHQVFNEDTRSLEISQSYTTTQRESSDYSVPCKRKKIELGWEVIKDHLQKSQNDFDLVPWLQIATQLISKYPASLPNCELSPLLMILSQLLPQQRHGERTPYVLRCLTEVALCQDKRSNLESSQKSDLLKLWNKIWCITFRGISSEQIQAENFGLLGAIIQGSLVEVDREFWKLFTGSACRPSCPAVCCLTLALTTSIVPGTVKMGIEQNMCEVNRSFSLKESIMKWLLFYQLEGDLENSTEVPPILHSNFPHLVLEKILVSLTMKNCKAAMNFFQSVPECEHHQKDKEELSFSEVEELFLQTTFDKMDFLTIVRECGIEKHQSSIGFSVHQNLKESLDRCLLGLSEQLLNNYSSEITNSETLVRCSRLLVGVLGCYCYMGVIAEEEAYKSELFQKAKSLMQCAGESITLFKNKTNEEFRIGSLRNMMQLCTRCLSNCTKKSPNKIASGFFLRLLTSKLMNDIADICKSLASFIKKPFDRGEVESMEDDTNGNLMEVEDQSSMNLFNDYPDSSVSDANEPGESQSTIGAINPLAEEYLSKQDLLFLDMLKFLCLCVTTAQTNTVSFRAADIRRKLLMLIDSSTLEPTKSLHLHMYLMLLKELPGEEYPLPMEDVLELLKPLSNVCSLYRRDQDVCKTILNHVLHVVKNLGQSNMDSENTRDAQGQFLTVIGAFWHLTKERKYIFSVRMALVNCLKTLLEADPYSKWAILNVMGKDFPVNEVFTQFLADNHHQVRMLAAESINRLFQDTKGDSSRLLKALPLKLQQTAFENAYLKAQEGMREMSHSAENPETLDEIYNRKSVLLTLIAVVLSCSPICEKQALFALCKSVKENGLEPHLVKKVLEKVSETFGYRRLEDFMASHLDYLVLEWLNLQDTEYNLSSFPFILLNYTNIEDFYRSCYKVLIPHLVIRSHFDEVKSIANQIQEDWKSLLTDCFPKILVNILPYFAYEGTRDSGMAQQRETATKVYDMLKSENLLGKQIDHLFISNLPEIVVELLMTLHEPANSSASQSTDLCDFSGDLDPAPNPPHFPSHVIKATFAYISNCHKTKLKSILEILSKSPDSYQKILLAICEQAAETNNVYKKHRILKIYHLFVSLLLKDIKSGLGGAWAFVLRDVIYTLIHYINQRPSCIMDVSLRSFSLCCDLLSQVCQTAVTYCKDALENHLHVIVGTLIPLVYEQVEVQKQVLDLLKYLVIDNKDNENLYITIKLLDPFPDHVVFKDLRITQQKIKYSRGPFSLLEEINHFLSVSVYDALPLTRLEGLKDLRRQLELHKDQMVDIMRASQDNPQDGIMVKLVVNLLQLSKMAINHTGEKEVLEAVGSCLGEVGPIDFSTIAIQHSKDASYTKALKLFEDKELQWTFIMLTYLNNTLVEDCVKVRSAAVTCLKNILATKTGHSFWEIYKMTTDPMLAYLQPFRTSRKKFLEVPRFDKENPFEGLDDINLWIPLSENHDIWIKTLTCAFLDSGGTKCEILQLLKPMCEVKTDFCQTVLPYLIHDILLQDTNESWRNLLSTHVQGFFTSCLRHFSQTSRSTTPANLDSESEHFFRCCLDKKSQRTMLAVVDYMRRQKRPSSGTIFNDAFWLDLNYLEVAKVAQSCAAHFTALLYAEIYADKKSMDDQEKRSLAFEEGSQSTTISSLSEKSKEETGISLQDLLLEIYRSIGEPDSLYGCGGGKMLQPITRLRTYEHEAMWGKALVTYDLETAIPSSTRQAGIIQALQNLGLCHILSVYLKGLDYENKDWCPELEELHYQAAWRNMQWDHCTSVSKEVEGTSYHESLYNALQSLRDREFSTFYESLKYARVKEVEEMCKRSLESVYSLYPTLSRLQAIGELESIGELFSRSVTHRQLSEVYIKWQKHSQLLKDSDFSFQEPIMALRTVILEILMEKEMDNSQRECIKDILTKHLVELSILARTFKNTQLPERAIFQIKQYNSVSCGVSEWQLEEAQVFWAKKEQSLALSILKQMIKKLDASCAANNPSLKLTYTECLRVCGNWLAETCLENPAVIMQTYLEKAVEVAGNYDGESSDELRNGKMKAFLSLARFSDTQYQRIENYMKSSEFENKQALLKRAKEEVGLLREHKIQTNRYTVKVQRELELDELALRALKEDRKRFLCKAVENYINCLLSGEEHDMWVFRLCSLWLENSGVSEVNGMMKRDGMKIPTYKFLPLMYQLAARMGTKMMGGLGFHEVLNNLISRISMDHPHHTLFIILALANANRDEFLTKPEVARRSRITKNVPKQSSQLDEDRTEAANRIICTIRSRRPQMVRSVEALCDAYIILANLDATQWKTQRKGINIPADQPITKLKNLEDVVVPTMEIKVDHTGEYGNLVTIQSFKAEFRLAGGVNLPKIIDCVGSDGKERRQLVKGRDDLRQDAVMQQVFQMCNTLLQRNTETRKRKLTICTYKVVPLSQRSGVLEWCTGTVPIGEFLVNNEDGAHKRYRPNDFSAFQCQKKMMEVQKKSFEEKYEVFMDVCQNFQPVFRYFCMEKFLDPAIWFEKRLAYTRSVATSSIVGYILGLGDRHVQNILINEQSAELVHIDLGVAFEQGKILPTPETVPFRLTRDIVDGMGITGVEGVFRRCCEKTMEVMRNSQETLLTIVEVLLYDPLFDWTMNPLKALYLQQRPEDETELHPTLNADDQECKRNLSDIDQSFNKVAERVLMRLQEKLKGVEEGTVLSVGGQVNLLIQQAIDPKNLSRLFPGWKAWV
The next data set deals with CEM-R-EYFP. As to the kind of experiment: DNA-G biosynthesis labeling in isogenic CEM-R line. Format: cell-based. The note with it: 6-TG treatment. Here is the method:
(§2) We utilized an isogenic cell line, CEM-R (Owen 1992), which lacks the enzymes dCK and HPRT that are necessary for the salvage pathways for DNA-G biosynthesis. CEM-R cells were engineered to express enhanced yellow fluorescent protein (CEM-R-EYFP, a negative control) and human HPRT (CEM-R-HPRT) and were confirmed by WB. The labeled media contained […] [U-^13C6]glucose to represent the de novo contribution and 5 μM [^15N5]dG to represent salvage pathways, particularly HPRT-dependent nucleobase salvaging. CEM-R-EYFP relied exclusively on the de novo pathway for the DNA-G biosynthesis. In contrast, CEM-R-HPRT utilized both de novo and nucleobase salvage pathways nearly equally.
(§3) The pMSCV-HPRT-IRES-EYFP and pMSCV-TK1-IRES-EYFP plasmids were generated by inserting the human HPRT and TK1 coding sequence into the multiple cloning sites of the MSCV-IRES-EYFP plasmid, respectively. The pMSCV-hdCK-IRES-EYFP plasmid was generated as previously described (Laing RE 2010). Amphotropic retroviruses were generated by transient co-transfection of the MSCV retroviral plasmid and pCL-10A1 packaging plasmid into Phoenix-Ampho packaging cells. To generate EL4-EYFP, EL4-TK1, CEM-R-EYFP, CEM-R-dCK and CEM-R-HPRT lines, parental cells underwent spin-fection with the respective amphotropic retrovirus and were then sorted by flow cytometry to isolate pure populations of transduced cells. […]

Another data set relates to CEM-R-HPRT. Kind of data set: DNA-G biosynthesis labeling in isogenic CEM-R line. Format: cell-based. The note with it: 6-TG treatment. Here is the method: as §2, §3
In another data set the test system is leukemia cell growth. As to the kind of experiment: IC50 (cytotoxicity assay) of RNR inhibitors, Table 1. Format: cell-based. Conditions: 3-AP: cell type independent. Here is the method:
as §1

Data set [4] is described as follows: Solubility study in phosphate buffer solution. The note with it: aqueous buffer. Format: physicochemical.
The test system of data set [5] is CEM cells. As to the kind of experiment: Inhibition of CEM cell growth by RNR inhibitors, 72 h. It counts as cell-based. As for the experimental part:
as §1

A further data set has as its system CEM T-ALL cells. As to the kind of experiment: ssDNA (F7-26) and pH2A.X measurement by FACS. It counts as cell-based. Conditions: 3-AP 500 nM; 0.5, 4 and 18 h. Here is the method:
Cells were harvested and fixed and permeabilized with cytofix/cytoperm (BD biosciences) for 15 min in dark on ice. Cells were washed and subsequently resuspended in 100 μL 1× Perm/wash buffer (BD Sciences) for 15 min on ice. Cells were washed and subsequently resuspended in 50 μL with phospho-Histone H2A.X (Ser139) antibody conjugated to fluorochrome FITC (EMD Milipore, 1:800 dilutions in perm/wash) for 20 min in dark at ambient temperature. […] Cells were harvested and fixed with ice-cold methanol:PBS (6:1) for 24 h. Staining with F7-26 monoclonal antibody (Mab) was performed according to manufacturer's instructions (EMD Milipore). Fixed cells were resuspended in 250 μL of formamide and heated in a water bath at 75° C. for 10 min. Cells were then allowed to return to room temperature and then washed with 2 ml of 1% non-fat dry milk in PBS for 15 min. Subsequently, cells were resuspended in 100 μL of anti-ssDNA Mab F7-26 (EMD Milipore, 1:10 in 5% FBS in PBS) and incubated for 45 min at room temperature. Cells were washed with PBS and stained with 100 μL of fluorescence-conjugated goat anti-mouse IgM antibody (Santa Cruz Biotechnology, 1:50) for 45 min at room temperature.

For data set [6], the system named is dCK activity in p185^BCR-ABLArf^−/− pre-B cells. Kind of data set: ^3H-FAC uptake to evaluate dCK activity. Format: cell-based, mouse. The note with it: after 1 h with 3-AP treatment.
Data set [7] has as its system p185^BCR-ABLArf^−/− pre-B cells. Kind of data set: dCTP pool and DNA-C measurement with [U-^13C9,^15N3]dC and [U-^13C6]glucose. It counts as cell-based, mouse. Conditions: 3, 6, 9 and 12 h treatment.
Protocol: Therefore, p185^BCR-ABLArf^−/− pre-B cells were labeled with [U-^13C9,^15N3]dC and [U-^13C6]glucose to measure the contribution of salvage pathway via dCK and de novo pathway via RNR, respectively.
as §4

“Also recorded” adds a separate entry of the source.

As for `CNCc1ccc(-c2cc(-c3nc(-c4ccc(S(=O)(=O)C(C)C)cc4)cnc3N)on2)cc1` [VE-822], in the data set on CCRF-CEM T-ALL cells, the “decrease in the number of cells in S2” value stood at 16%. In the data set with CEM cells [1] (G1 released CEM cells), the “effect on dCTP pool levels compared to untreated” value is “did not significantly impact”. Besides, the “total DNA-C labeling, less than untreated controls” value in the data set on CEM cells [1] (G1 released CEM cells) worked out at 30%. In addition, the IC50 in the data set with CEM T-ALL was around 300 nM; in the data set with PANC-1 PDAC cells it was 3000 nM; at ATM, 34000 nM. Further, the “efficacy of single agent therapy in vivo” value in data set [2] was “not capable of eradicating p185 cells in vivo; also recorded: marginally efficacious”. For the same compound, the “phosphorylation of Chk1 and Claspin compared to untreated cells” value in data set [3] is “decreased phosphorylation”.
Consider `Nc1nc2nc[nH]c2c(=S)[nH]1` [6-thioguanine], for which, in the data set with CEM-R-EYFP, the “DNA-G biosynthesis” value is on record as “remained unaffected”. The “decrease of de novo and salvage pathway labeling of DNA-G” value in the data set on CEM-R-HPRT is reported as around 10 fold.
For `NC(=S)N/N=C/c1ncccc1N` [3-AP, 3-aminopyridine-2-carboxyaldehyde-thiosemicarbazone], it took 1310 nM to reach half-maximal inhibition with leukemia cell growth (IC50). The compound also registered a solubility in [4] below 300 µg/mL. For the same compound, in the data set on CEM cells [1] (3-AP at 500 nM, 18 h), the “effect on de novo dCTP pool” value is listed as “did not affect” and the “increase in salvage dCTP pool” value turned out to be 2 fold. Besides, the “IC50 lower than the other RNR inhibitors (dT, GaM, HU)” value in the data set on CEM cells [5] is 50 to 150 fold. In the data set on CEM T-ALL cells, the “RS and DNA damage biomarker expression (ssDNA, pH2A.X), words” value is “minimally induced”. Besides, in [6], the “increase in ^3H-FAC uptake” value is on record as around 2.5 fold. The “dCTP pool” value in data set [7] is given as “increased their dCTP pool”.

Values taken from patent publication US20190000850A1, “COMBINATION CANCER THERAPY” (The Regents of the University of California, priority 2015, published 2019).
